# Measured values from PubChem BioAssay (NCI).
#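 In this assay, cells in 96-well plates receive the compound at five concentrations for 48 hours. Endpoints are linearly interpolated between the surrounding concentrations. GI50 = concentration required for 50% inhibition of growth. TGI: total growth inhibition.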
# Legend:
# Assay in all cases: DTP human tumour cell line panel, 48 h
# 786-0 renal = tested on: 786-0 renal
# A549 NSCLC = tested on: A549 NSCLC
# ACHN renal = tested on: ACHN renal
# BT-549 breast = tested on: BT-549 breast
# CAKI-1 renal = tested on: CAKI-1 renal
# CCRF-CEM leukemia = tested on: CCRF-CEM leukemia
# COLO 205 colon = tested on: COLO 205 colon
# DU-145 prostate = tested on: DU-145 prostate
# EKVX NSCLC = tested on: EKVX NSCLC
# HCC-2998 colon = tested on: HCC-2998 colon
# HCT-116 colon = tested on: HCT-116 colon
# HCT-15 colon = tested on: HCT-15 colon
# HL-60(TB) leukemia = tested on: HL-60(TB) leukemia
# HOP-62 NSCLC = tested on: HOP-62 NSCLC
# HOP-92 NSCLC = tested on: HOP-92 NSCLC
# HS 578T breast = tested on: HS 578T breast
# HT29 colon = tested on: HT29 colon
# IGROV1 ovarian = tested on: IGROV1 ovarian
# K-562 leukemia = tested on: K-562 leukemia
# KM12 colon = tested on: KM12 colon
# LOX IMVI melanoma = tested on: LOX IMVI melanoma
# M14 melanoma = tested on: M14 melanoma
# MALME-3M melanoma = tested on: MALME-3M melanoma
# MCF7 breast = tested on: MCF7 breast
# MDA-MB-231 breast = tested on: MDA-MB-231 breast
# MDA-MB-435 = tested on: MDA-MB-435
# MOLT-4 leukemia = tested on: MOLT-4 leukemia
# NCI-H226 lung = tested on: NCI-H226 lung
# NCI-H23 lung = tested on: NCI-H23 lung
# NCI-H460 lung = tested on: NCI-H460 lung
# NCI-H522 lung = tested on: NCI-H522 lung
# NCI/ADR-RES ovarian = tested on: NCI/ADR-RES ovarian
# OVCAR-3 ovarian = tested on: OVCAR-3 ovarian
# OVCAR-4 ovarian = tested on: OVCAR-4 ovarian
# OVCAR-5 ovarian = tested on: OVCAR-5 ovarian
# OVCAR-8 ovarian = tested on: OVCAR-8 ovarian
# PC-3 prostate = tested on: PC-3 prostate
# RPMI-8226 leukemia = tested on: RPMI-8226 leukemia
# RXF 393 renal = tested on: RXF 393 renal
# SF-268 CNS = tested on: SF-268 CNS
# SF-295 CNS = tested on: SF-295 CNS
# SF-539 CNS = tested on: SF-539 CNS
# SK-MEL-2 melanoma = tested on: SK-MEL-2 melanoma
# SK-MEL-28 melanoma = tested on: SK-MEL-28 melanoma
# SK-MEL-5 melanoma = tested on: SK-MEL-5 melanoma
# SK-OV-3 ovarian = tested on: SK-OV-3 ovarian
# SN12C renal = tested on: SN12C renal
# SNB-19 CNS = tested on: SNB-19 CNS
# SNB-75 CNS = tested on: SNB-75 CNS
# SR leukemia = tested on: SR leukemia
# SW-620 colon = tested on: SW-620 colon
# T-47D breast = tested on: T-47D breast
# TK-10 renal = tested on: TK-10 renal
# U251 CNS = tested on: U251 CNS
# UACC-257 melanoma = tested on: UACC-257 melanoma
# UACC-62 melanoma = tested on: UACC-62 melanoma
# UO-31 renal = tested on: UO-31 renal
smiles,measurement,setting,value
CN(C)CCCC1(c2ccc(F)cc2)OCc2cc(-c3cncc4ccccc34)ccc21 (centres undefined),GI50,786-0 renal,2.71 µM
same,TGI,786-0 renal,9.72 µM
same,GI50,A549 NSCLC,3.92 µM
same,TGI,A549 NSCLC,16.2 µM
same,GI50,ACHN renal,3.34 µM
same,TGI,ACHN renal,12.5 µM
same,GI50,BT-549 breast,7.45 µM
same,TGI,BT-549 breast,20.5 µM
same,GI50,CAKI-1 renal,2 µM
same,TGI,CAKI-1 renal,5.88 µM
same,GI50,CCRF-CEM leukemia,3.45 µM
same,TGI,CCRF-CEM leukemia,11.6 µM
same,GI50,COLO 205 colon,2.07 µM
same,TGI,COLO 205 colon,4.72 µM
same,GI50,DU-145 prostate,3.4 µM
same,TGI,DU-145 prostate,11.8 µM
same,GI50,EKVX NSCLC,8.48 µM
same,TGI,EKVX NSCLC,21.2 µM
same,GI50,HCC-2998 colon,1.84 µM
same,TGI,HCC-2998 colon,3.71 µM
same,GI50,HCT-116 colon,2.94 µM
same,TGI,HCT-116 colon,11 µM
same,GI50,HCT-15 colon,3.32 µM
same,TGI,HCT-15 colon,12.6 µM
same,GI50,HL-60(TB) leukemia,1.81 µM
same,TGI,HL-60(TB) leukemia,4.15 µM
same,GI50,HOP-62 NSCLC,3.8 µM
same,TGI,HOP-62 NSCLC,16.8 µM
same,GI50,HOP-92 NSCLC,1.58 µM
same,TGI,HOP-92 NSCLC,8.81 µM
same,GI50,HS 578T breast,2.78 µM
same,TGI,HS 578T breast,11.6 µM
same,GI50,HT29 colon,2.36 µM
same,TGI,HT29 colon,8.23 µM
same,GI50,IGROV1 ovarian,2.88 µM
same,TGI,IGROV1 ovarian,12.2 µM
same,GI50,K-562 leukemia,2.02 µM
same,TGI,K-562 leukemia,5.17 µM
same,GI50,KM12 colon,3.41 µM
same,TGI,KM12 colon,12.1 µM
same,GI50,LOX IMVI melanoma,1.72 µM
same,TGI,LOX IMVI melanoma,3.27 µM
same,GI50,M14 melanoma,1.82 µM
same,TGI,M14 melanoma,3.77 µM
same,GI50,MALME-3M melanoma,1.55 µM
same,TGI,MALME-3M melanoma,3.09 µM
same,GI50,MCF7 breast,1.89 µM
same,TGI,MCF7 breast,4.57 µM
same,GI50,MDA-MB-231 breast,2.1 µM
same,TGI,MDA-MB-231 breast,6.57 µM
same,GI50,MDA-MB-435,1.71 µM
same,TGI,MDA-MB-435,3.22 µM
same,GI50,MOLT-4 leukemia,2.39 µM
same,TGI,MOLT-4 leukemia,6.7 µM
same,GI50,NCI-H226 lung,8.65 µM
same,TGI,NCI-H226 lung,27 µM
same,GI50,NCI-H23 lung,5.73 µM
same,TGI,NCI-H23 lung,20.1 µM
same,GI50,NCI-H460 lung,1.73 µM
same,TGI,NCI-H460 lung,3.49 µM
same,GI50,NCI-H522 lung,1.88 µM
same,TGI,NCI-H522 lung,4.08 µM
same,GI50,NCI/ADR-RES ovarian,4.89 µM
same,TGI,NCI/ADR-RES ovarian,18.8 µM
same,GI50,OVCAR-3 ovarian,2.94 µM
same,TGI,OVCAR-3 ovarian,9.88 µM
same,GI50,OVCAR-4 ovarian,3.27 µM
same,TGI,OVCAR-4 ovarian,13.7 µM
same,GI50,OVCAR-5 ovarian,5.23 µM
same,TGI,OVCAR-5 ovarian,18.3 µM
same,GI50,OVCAR-8 ovarian,4.48 µM
same,TGI,OVCAR-8 ovarian,19.8 µM
same,GI50,PC-3 prostate,3.36 µM
same,TGI,PC-3 prostate,15 µM
same,GI50,RPMI-8226 leukemia,2.51 µM
same,TGI,RPMI-8226 leukemia,5.96 µM
same,GI50,RXF 393 renal,2.51 µM
same,TGI,RXF 393 renal,10.1 µM
same,GI50,SF-268 CNS,3.15 µM
same,TGI,SF-268 CNS,13.9 µM
same,GI50,SF-295 CNS,2.02 µM
same,TGI,SF-295 CNS,4.2 µM
same,GI50,SF-539 CNS,1.76 µM
same,TGI,SF-539 CNS,3.29 µM
same,GI50,SK-MEL-2 melanoma,2.14 µM
same,TGI,SK-MEL-2 melanoma,4.74 µM
same,GI50,SK-MEL-28 melanoma,1.75 µM
same,TGI,SK-MEL-28 melanoma,3.24 µM
same,GI50,SK-MEL-5 melanoma,1.77 µM
same,TGI,SK-MEL-5 melanoma,3.2 µM
same,GI50,SK-OV-3 ovarian,5.48 µM
same,TGI,SK-OV-3 ovarian,18.8 µM
same,GI50,SN12C renal,4.05 µM
same,TGI,SN12C renal,17 µM
same,GI50,SNB-19 CNS,2.35 µM
same,TGI,SNB-19 CNS,7.4 µM
same,GI50,SNB-75 CNS,1.66 µM
same,TGI,SNB-75 CNS,6.86 µM
same,GI50,SR leukemia,3 µM
same,TGI,SR leukemia,17.9 µM
same,GI50,SW-620 colon,3.08 µM
same,TGI,SW-620 colon,11.5 µM
same,GI50,T-47D breast,2.43 µM
same,TGI,T-47D breast,7.28 µM
same,GI50,TK-10 renal,2.83 µM
same,TGI,TK-10 renal,12.2 µM
same,GI50,U251 CNS,2.22 µM
same,TGI,U251 CNS,5.7 µM
same,GI50,UACC-257 melanoma,2.02 µM
same,TGI,UACC-257 melanoma,4 µM
same,GI50,UACC-62 melanoma,2.24 µM
same,TGI,UACC-62 melanoma,5.17 µM
same,GI50,UO-31 renal,1.53 µM
same,TGI,UO-31 renal,4.41 µM
